Results reported in patent publication US20230322769A1, “HETEROAROMATIC RING COMPOUND AS RET KINASE INHIBITOR, AND PREPARATION AND USE THEREOF” (JIANGSU CHIA TAI FENGHAI PHARMACEUTICAL CO., LTD., priority 2020, published 2023).
One block for each compound: values may come before it.

What was measured:
FGFR2 K641R = FGFR2 K641R (Homo sapiens (Human), UniProt P21802, K641R); assay: HTRF kinase activity assay, FGFR2 K641R; assay type: biochemical
Method: (§1) Activity Experiment 8: Inhibition of FGFR Family Kinases' Activity by Prepared Compounds The compounds were assayed for activity IC50 against the FGFR family kinases. Related kinases were purchased from Carna and Signalchem. The activity assay method for the related kinases was established by homogeneous time-resolved fluorescence (HTRF), and the inhibitory activity of the compounds was determined. […] The kinases and compounds were pre-incubated for 10 min, and then ATP and substrate were added to start the reaction. All the enzyme-catalyzed reactions were carried out at 25° C. for 40 min. After the enzyme-catalyzed reactions were completed, 5 μL of TK antibody-cryptate and streptavidin-XL665 (the reaction concentration of streptavidin-XL665 was 62.5 nM) were added to the reaction mixtures, and the mixtures were incubated at 25° C. for another 60 min.

Ba/F3 RET-M918T cells = assay: Ba/F3 RET-M918T cell inhibition (CellTiter-Glo); assay type: cell-based; conditions: Mus musculus, BaF3, 72 h
Method: (§2) Activity Experiment 3: Inhibition of Ba/F3 KIF5B-RET Cells by Prepared Compounds Ba/F3 KIF5B-RET, Ba/F3KIF5B-RET-V804M, Ba/F3 RET-M918T and Ba/F3 KIF5B-RET-G810R cells growing in log phase were harvested and counted using a […]. The cell viability was determined by the trypan blue exclusion method, and the cell viability was kept over 90%. The cell concentration was adjusted, and 90 μL of the cell suspension was added to a 96-well plate. The cells in the 96-well plate were incubated overnight at 37° C. with 5% CO2 and 95% humidity. Corresponding gradient concentrations of drug solutions (the maximum concentration was 1000 nM) were added to the 96-well plate inoculated with cells at 10 μL/well. Triplicate wells were set per drug concentration, and the final concentration of DMSO was 0.1%. The drug-treated cells in the 96-well plate were incubated for another 72 h at 37° C. with 5% CO2 and 95% humidity. After the drug treatment was completed, 100 μL of CellTiter-Glo reagent was added to each well. The cell plate was shaken on an orbital shaker for 5 min to lyse the cells and then let stand at room temperature for 20 min to stabilize the luminescence signals, and then the luminescence values were read. The data were analyzed using the GraphPad Prism 5.0 software. Dose-response curves were fit to the data using nonlinear S-curve regression, and IC50 was calculated from the curves.

[1] = tested on: Ba/F3 KIF5B-RET-V804M cells; assay: Ba/F3 KIF5B-RET-V804M cell inhibition (CellTiter-Glo); assay type: cell-based; conditions: Mus musculus, BaF3, 72 h
Method: as §2

FGFR2 V564I = FGFR2 V564I (Homo sapiens (Human), UniProt P21802, V564I); assay: HTRF kinase activity assay, FGFR2 V564I; assay type: biochemical
Sequence of FGFR2 V564I (P21802 22-821 V564I): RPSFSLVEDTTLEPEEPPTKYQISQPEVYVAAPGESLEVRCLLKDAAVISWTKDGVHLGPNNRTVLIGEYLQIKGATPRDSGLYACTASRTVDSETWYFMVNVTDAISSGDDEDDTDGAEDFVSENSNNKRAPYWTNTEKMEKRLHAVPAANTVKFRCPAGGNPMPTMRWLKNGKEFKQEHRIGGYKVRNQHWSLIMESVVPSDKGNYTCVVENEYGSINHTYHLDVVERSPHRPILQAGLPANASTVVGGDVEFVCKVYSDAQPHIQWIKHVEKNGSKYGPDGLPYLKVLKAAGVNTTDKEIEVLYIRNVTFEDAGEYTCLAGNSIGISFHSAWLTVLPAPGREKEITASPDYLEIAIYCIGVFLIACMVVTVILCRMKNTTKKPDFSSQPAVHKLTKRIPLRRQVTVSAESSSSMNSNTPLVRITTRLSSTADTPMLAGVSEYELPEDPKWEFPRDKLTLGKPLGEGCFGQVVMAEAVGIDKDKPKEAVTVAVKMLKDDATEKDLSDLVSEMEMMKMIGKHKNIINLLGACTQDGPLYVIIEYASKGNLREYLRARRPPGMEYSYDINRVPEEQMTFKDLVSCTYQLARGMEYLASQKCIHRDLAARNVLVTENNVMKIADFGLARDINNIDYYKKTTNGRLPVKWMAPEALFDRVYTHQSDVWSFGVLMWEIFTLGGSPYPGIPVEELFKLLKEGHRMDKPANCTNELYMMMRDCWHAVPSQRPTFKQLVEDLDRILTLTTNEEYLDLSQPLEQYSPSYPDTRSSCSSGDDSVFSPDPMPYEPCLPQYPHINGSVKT
Method: as §1

[2] = Metabolic stability in human liver microsomes; conditions: human liver microsomes, NADPH, Table 3; for microsomal CLint at 1 µM: CLint (μL/min/mg); for half-life at 1 µM: T1/2 (min)
FGFR3 = FGFR3 (Homo sapiens (Human), UniProt P22607); assay: HTRF kinase activity assay, FGFR3; assay type: biochemical
Sequence of FGFR3 (P22607 23-806): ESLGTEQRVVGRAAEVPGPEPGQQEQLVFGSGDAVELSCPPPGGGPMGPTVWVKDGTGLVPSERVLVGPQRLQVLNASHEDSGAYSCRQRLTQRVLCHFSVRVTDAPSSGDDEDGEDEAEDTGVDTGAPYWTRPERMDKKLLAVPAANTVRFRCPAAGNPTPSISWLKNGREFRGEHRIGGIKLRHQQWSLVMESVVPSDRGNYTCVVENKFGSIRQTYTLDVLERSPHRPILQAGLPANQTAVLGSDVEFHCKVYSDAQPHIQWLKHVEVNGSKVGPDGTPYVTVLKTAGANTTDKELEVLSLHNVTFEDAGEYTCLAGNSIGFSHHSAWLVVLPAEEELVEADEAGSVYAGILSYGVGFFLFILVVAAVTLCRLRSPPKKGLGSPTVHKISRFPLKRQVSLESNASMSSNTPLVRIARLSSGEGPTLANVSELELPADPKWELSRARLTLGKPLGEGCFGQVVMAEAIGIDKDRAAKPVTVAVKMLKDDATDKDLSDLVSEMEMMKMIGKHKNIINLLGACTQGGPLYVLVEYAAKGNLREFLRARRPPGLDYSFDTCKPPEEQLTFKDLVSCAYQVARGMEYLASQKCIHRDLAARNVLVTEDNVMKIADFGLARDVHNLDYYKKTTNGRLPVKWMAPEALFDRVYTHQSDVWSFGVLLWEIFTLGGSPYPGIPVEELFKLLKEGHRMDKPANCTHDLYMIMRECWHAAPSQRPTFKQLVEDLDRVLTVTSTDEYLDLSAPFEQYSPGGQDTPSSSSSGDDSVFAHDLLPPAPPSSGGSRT
Method: (§3) Activity Experiment 8: Inhibition of FGFR Family Kinases' Activity by Prepared Compounds The compounds were assayed for activity IC50 against the FGFR family kinases. Related kinases were purchased from Carna and Signalchem.
(§4) The activity assay method for the related kinases was established by homogeneous time-resolved fluorescence (HTRF), and the inhibitory activity of the compounds was determined. A 5 μL reaction mixture was prepared, comprising 1× enzymatic buffer (Cisbio, HTRF KinEASE™-TK), 5 mM MgCl2, 1 mM DTT, 1 μM TK substrate-biotin (Cisbio, HTRF KinEASE™-TK), corresponding concentrations of ATP and related kinases, and gradient concentrations of compounds.
(§5) The kinases and compounds were pre-incubated for 10 min, and then ATP and substrate were added to start the reaction. All the enzyme-catalyzed reactions were carried out at 25° C. for 40 min. After the enzyme-catalyzed reactions were completed, 5 μL of TK antibody-cryptate and streptavidin-XL665 (the reaction concentration of streptavidin-XL665 was 62.5 nM) were added to the reaction mixtures, and the mixtures were incubated at 25° C. for another 60 min.

FGFR2 N549H = FGFR2 N549H (Homo sapiens (Human), UniProt P21802, N549H); assay: HTRF kinase activity assay, FGFR2 N549H; assay type: biochemical
Sequence of FGFR2 N549H (P21802 22-821 N549H): as the sequence (P21802 22-821 V564I) above, with N528H, I543V counted along it
Method: as §1

FGFR3 K650E = FGFR3 K650E (Homo sapiens (Human), UniProt P22607, K650E); assay: HTRF kinase activity assay, FGFR3 K650E; assay type: biochemical
Sequence of FGFR3 K650E (P22607 23-806 K650E): as the sequence (P22607 23-806) above, with K628E counted along it
Method: as §3, §4, §5

FGFR3 V555M = FGFR3 V555M (Homo sapiens (Human), UniProt P22607, V555M); assay: HTRF kinase activity assay, FGFR3 V555M; assay type: biochemical
Sequence of FGFR3 V555M (P22607 23-806 V555M): as the sequence (P22607 23-806) above, with V533M counted along it
Method: as §3, §4, §5

FGFR2 V564F = FGFR2 V564F (Homo sapiens (Human), UniProt P21802, V564F); assay: HTRF kinase activity assay, FGFR2 V564F; assay type: biochemical
Sequence of FGFR2 V564F (P21802 22-821 V564F): as the sequence (P21802 22-821 V564I) above, with I543F counted along it
Method: as §1

FGFR4 = FGFR4 (Homo sapiens (Human), UniProt P22455); assay: HTRF kinase activity assay, FGFR4; assay type: biochemical
Sequence of FGFR4 (P22455 22-802): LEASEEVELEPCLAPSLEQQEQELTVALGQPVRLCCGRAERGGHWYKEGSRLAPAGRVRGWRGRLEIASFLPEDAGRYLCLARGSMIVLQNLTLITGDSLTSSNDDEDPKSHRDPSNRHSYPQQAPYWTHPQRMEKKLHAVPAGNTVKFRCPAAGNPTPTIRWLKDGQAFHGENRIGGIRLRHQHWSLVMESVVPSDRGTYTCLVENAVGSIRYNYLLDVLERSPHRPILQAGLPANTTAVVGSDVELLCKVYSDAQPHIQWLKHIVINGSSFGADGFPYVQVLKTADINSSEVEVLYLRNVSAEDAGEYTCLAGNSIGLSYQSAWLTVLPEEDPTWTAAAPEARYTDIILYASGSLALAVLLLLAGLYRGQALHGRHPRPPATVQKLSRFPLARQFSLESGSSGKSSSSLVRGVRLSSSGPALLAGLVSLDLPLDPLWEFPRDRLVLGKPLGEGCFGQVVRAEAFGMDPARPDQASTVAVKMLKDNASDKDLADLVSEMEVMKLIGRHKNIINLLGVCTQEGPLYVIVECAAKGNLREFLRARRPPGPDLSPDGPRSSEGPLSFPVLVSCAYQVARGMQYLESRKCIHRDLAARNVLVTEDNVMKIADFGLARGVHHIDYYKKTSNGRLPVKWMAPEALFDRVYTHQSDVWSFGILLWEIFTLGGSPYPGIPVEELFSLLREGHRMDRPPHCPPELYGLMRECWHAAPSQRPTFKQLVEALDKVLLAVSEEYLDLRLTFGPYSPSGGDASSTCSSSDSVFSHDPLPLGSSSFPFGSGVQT
Method: as §3, §4, §5

[3] = Pharmacokinetic assay in rats; assay type: in vivo, rat; conditions: for CL / Vz / F / AUC(0-inf) / AUC(0-t) / Cmax / Tmax / clearance / half-life / Vd: SD male rats; for F: p.o. 5 mg/kg vs i.v. 1 mg/kg; for AUC(0-inf) / AUC(0-t) / Cmax / Tmax / clearance / half-life / Vd: rat, plasma; for Vd: read-out: Vz
FGFR1 V561M = FGFR1 V561M (Homo sapiens (Human), UniProt P11362, V561M); assay: HTRF kinase activity assay, FGFR1 V561M; assay type: biochemical
Sequence of FGFR1 V561M (P11362 22-822 V561M): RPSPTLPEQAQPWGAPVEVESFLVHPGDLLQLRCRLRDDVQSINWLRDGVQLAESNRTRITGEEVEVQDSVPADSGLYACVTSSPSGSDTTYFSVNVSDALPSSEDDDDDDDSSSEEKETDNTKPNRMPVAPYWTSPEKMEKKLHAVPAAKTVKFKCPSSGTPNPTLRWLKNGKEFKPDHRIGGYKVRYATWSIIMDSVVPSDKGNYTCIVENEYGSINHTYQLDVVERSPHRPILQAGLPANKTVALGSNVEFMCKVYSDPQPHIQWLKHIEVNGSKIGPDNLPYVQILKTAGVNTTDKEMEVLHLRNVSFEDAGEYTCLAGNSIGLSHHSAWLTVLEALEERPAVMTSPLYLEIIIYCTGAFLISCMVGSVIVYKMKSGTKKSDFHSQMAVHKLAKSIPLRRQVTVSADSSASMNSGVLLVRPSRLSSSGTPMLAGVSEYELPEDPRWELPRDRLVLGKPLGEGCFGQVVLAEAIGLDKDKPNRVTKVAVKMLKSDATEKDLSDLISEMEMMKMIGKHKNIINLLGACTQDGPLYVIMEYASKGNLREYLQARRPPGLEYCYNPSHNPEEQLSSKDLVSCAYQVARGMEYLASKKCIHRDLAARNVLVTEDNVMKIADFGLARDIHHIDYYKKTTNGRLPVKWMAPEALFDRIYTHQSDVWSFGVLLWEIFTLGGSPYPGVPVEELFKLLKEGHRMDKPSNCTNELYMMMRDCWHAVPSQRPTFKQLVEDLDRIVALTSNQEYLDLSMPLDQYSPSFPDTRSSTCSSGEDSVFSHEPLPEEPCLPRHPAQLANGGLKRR
Method: as §3, §4, §5

FGFR2 = FGFR2 (Homo sapiens (Human), UniProt P21802); assay: HTRF kinase activity assay, FGFR2; assay type: biochemical
Sequence of FGFR2 (P21802 22-821): as the sequence (P21802 22-821 V564I) above, with I543V counted along it
Method: as §1

[4] = tested on: Ba/F3 KIF5B-RET-G810R cells; assay: Ba/F3 KIF5B-RET-G810R cell inhibition (CellTiter-Glo); assay type: cell-based; conditions: Mus musculus, BaF3, 72 h, maximum concentration 1000 nM
Method: as §2

FGFR1 = FGFR1 (Homo sapiens (Human), UniProt P11362); assay: HTRF kinase activity assay, FGFR1; assay type: biochemical
Sequence of FGFR1 (P11362 22-822): as the sequence (P11362 22-822 V561M) above, with M540V counted along it
Method: as §3, §4, §5

[5] = tested on: BA/F3 KIF5B-RET graft tumor; assay: Mouse subcutaneous BA/F3 KIF5B-RET graft tumor model; assay type: in vivo
[6] = 30 mg/kg b.i.d. intragastric, Day 11
[7] = 30 mg/kg b.i.d. intragastric, Day 15

Sequence of FGFR2 K641R (P21802 22-821 K641R): as the sequence (P21802 22-821 V564I) above, with I543V, K620R counted along it

SMILES: [2H]C([2H])([2H])N1CCN(c2cc(-c3ccc(N4CC5CC(C4)N5Cc4ccc(OC)nc4)nc3)c3c(C#N)cnn3c2)CC1 [Compound 94]
IC50 (FGFR2 K641R): 7.39 nM | IC50 (Ba/F3 RET-M918T cells): 17.1 nM | IC50 [1]: 99 nM | IC50 (FGFR2 V564I): 45.6 nM | microsomal CLint at 1 µM [2]: 41.2 µL/min/mg | half-life at 1 µM [2]: 33.6 min | IC50 (FGFR3): 309 nM | IC50 (FGFR2 N549H): 2.19 nM | IC50 (FGFR3 K650E): 36.5 nM | IC50 (FGFR3 V555M): 74.3 nM | IC50 (FGFR2 V564F): 3.58 nM | IC50 (FGFR4): 595 nM | CL ([3]; p.o. 5 mg/kg): 3567.58 mL/h/kg | Vz ([3]; p.o. 5 mg/kg): 68492.14 mL/kg | F [3]: 98.02% | Clearance time in rats compared with Loxo-292 ([3]; after oral administration): took longer to be cleared | Bioavailability compared with Loxo-292 ([3]; after oral administration, rats): higher bioavailability | AUC(0-inf) ([3]; iv, i.v. 1 mg/kg): 335 ng·h/mL | AUC(0-t) ([3]; iv, i.v. 1 mg/kg): 240 ng·h/mL | Cmax ([3]; iv, i.v. 1 mg/kg): 42.3 ng/mL | Tmax ([3]; iv, i.v. 1 mg/kg): 0.08 h | clearance ([3]; iv, i.v. 1 mg/kg): 51.2 mL/min/kg | half-life ([3]; iv, i.v. 1 mg/kg): 796 min | Vd ([3]; iv, i.v. 1 mg/kg): 57.6 L/kg | AUC(0-inf) ([3]; po, p.o. 5 mg/kg): 1640 ng·h/mL | AUC(0-t) ([3]; po, p.o. 5 mg/kg): 1020 ng·h/mL | Cmax ([3]; po, p.o. 5 mg/kg): 63.9 ng/mL | Tmax ([3]; po, p.o. 5 mg/kg): 4 h | half-life ([3]; po, p.o. 5 mg/kg): 946 min | IC50 (FGFR1 V561M): 1400 nM | IC50 (FGFR2): 26.5 nM | IC50 [4]: 464 nM | IC50 (FGFR1): 301 nM | Volume of graft tumor (mean ± SD) ([5]; 30 mg/kg b.i.d. intragastric, Day 0): 96.85 ± 2.24 mm^3 | Volume of graft tumor (mean ± SD) [5, 6]: 12.19 ± 27.25 mm^3 | Volume of graft tumor (mean ± SD) [5, 7]: 8.00 ± 17.89 mm^3 | Volume of graft tumor (mean ± SD) ([5]; 30 mg/kg q.d. intragastric, Day 0): 96.95 ± 1.48 mm^3 | Volume of graft tumor (mean ± SD) ([5]; 30 mg/kg q.d. intragastric, Day 11): 14.57 ± 23.42 mm^3 | Volume of graft tumor (mean ± SD) ([5]; 30 mg/kg q.d. intragastric, Day 15): 9.73 ± 16.31 mm^3 | Volume of graft tumor (mean ± SD) ([5]; 60 mg/kg q.d. intragastric, Day 0): 96.76 ± 2.34 mm^3 | Volume of graft tumor (mean ± SD) ([5]; 60 mg/kg q.d. intragastric, Day 11): 6.11 ± 14.98 mm^3 | Volume of graft tumor (mean ± SD) ([5]; 60 mg/kg q.d. intragastric, Day 15): 3.75 ± 9.19 mm^3

IC50 (FGFR2 K641R): 11.2 nM | IC50 (Ba/F3 RET-M918T cells): 20.4 nM | IC50 [1]: 38.4 nM | IC50 (FGFR2 V564I): 97.6 nM | microsomal CLint at 1 µM [2]: 60.4 µL/min/mg | half-life at 1 µM [2]: 22.9 min | IC50 (FGFR3): 349 nM | IC50 (FGFR2 N549H): 9.26 nM | IC50 (FGFR3 K650E): 45.9 nM | IC50 (FGFR3 V555M): 188 nM | IC50 (FGFR2 V564F): 12.9 nM | IC50 (FGFR4): 475 nM | CL ([3]; p.o. 5 mg/kg): 456 mL/h/kg | Vz ([3]; p.o. 5 mg/kg): 2039 mL/kg | F [3]: 66.07% | AUC(0-inf) ([3]; iv, i.v. 1 mg/kg): 3330 ng·h/mL | AUC(0-t) ([3]; iv, i.v. 1 mg/kg): 3310 ng·h/mL | Cmax ([3]; iv, i.v. 1 mg/kg): 1260 ng/mL | Tmax ([3]; iv, i.v. 1 mg/kg): 0.083 h | clearance ([3]; iv, i.v. 1 mg/kg): 5.1 mL/min/kg | Vd ([3]; iv, i.v. 1 mg/kg): 1.61 L/kg | AUC(0-inf) ([3]; po, p.o. 5 mg/kg): 11000 ng·h/mL | AUC(0-t) ([3]; po, p.o. 5 mg/kg): 10900 ng·h/mL | Cmax ([3]; po, p.o. 5 mg/kg): 1040 ng/mL | Tmax ([3]; po, p.o. 5 mg/kg): 2.67 h | half-life ([3]; po, p.o. 5 mg/kg): 187 min | IC50 (FGFR1 V561M): 1950 nM | IC50 (FGFR2): 20.6 nM | IC50 [4]: > 1000 nM | IC50 (FGFR1): 304 nM
SMILES: COc1ccc(CN2C3CC2CN(c2ccc(-c4cc(OCC(C)(C)O)cn5ncc(C#N)c45)cn2)C3)cn1 [Selpercatinib, selpercatinib, reference compound]
Volume of graft tumor (mean ± SD) [5, 6]: 19.68 ± 17.97 mm^3 | Volume of graft tumor (mean ± SD) [5, 7]: 13.59 ± 12.43 mm^3
